Assay results taken from PubChem BioAssay AID1845215 (Molecular Pharmacology Branch, DTP, NCI, 2023).

Test system: SW 1271 complex tumor spheroid viability
Test: Anticancer human tumor SW 1271 cell line growth inhibition;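 also: spheroids exposed to agents for seven days before readout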;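 as to viability, T/C: percent of DMSO vehicle control luminescence so 100% = vehicle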
Settings: for IC50: curve of first compound; for viability, T/C: stronger effect = lower value
How it was run: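 Complex spheroids of malignant cells with endothelial cells and mesenchymal stem cells; agents alone or combined, from near clinical Cmax (or 10 microM if unknown) down in half-log steps, 0.25% DMSO final.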

Compound `CNCc1ccc(-c2cc(-c3nc(-c4ccc(S(=O)(=O)C(C)C)cc4)cnc3N)on2)cc1` + COc1cc2c(cc1O)CCNC21CSC2c3c(OC(C)=O)c(C)c4c(c3C(COC1=O)N1C(O)C3Cc5cc(C)c(OC)c(O)c5C(C21)N3C)OCO4 has an IC50 (second compound 30 pM) of 117 nM, an IC50 (second compound 94.9 pM) of 26.6 nM and an IC50 (second compound 0.0003 µM) of under 9.49 nM. The IC50 (second compound 0.000949 µM) was under 9.49 nM, the IC50 (second compound 0.003 µM) was under 9.49 nM and the viability, T/C (second compound 30 pM, first compound 0.00949 µM) was 89.6%. For the same compound, the viability, T/C (second compound 30 pM, first compound 0.03 µM) was 89.7%, the viability, T/C (second compound 30 pM, first compound 0.0949 µM) was 55.5% and the viability, T/C (second compound 30 pM, first compound 0.3 µM) was 18.8%. The viability, T/C (second compound 30 pM, first compound 0.949 µM) was 11.3%, the viability, T/C (second compound 30 pM, first compound 3 µM) was 0.15% and the viability, T/C (second compound 94.9 pM, first compound 0.00949 µM) was 64%. For the same compound, the viability, T/C (second compound 94.9 pM, first compound 0.03 µM) was 42.6%, the viability, T/C (second compound 94.9 pM, first compound 0.0949 µM) was 37% and the viability, T/C (second compound 94.9 pM, first compound 0.3 µM) was 27.9%. The viability, T/C (second compound 94.9 pM, first compound 0.949 µM) was 14.7%, the viability, T/C (second compound 94.9 pM, first compound 3 µM) was 0.12% and the viability, T/C (second compound 0.0003 µM, first compound 0.00949 µM) was 28.8%. The viability, T/C (second compound 0.0003 µM, first compound 0.03 µM) was 35.5%, the viability, T/C (second compound 0.0003 µM, first compound 0.0949 µM) was 38.5% and the viability, T/C (second compound 0.0003 µM, first compound 0.3 µM) was 35%. The viability, T/C (second compound 0.0003 µM, first compound 0.949 µM) was 19.5%, the viability, T/C (second compound 0.0003 µM, first compound 3 µM) was 0.15% and the viability, T/C (second compound 0.000949 µM, first compound 0.00949 µM) was 5.31%. The viability, T/C (second compound 0.000949 µM, first compound 0.03 µM) was 7.14%, the viability, T/C (second compound 0.000949 µM, first compound 0.0949 µM) was 3.92% and the viability, T/C (second compound 0.000949 µM, first compound 0.3 µM) was 2.05%. It also gave a viability, T/C (second compound 0.000949 µM, first compound 0.949 µM) of 1.95%, a viability, T/C (second compound 0.000949 µM, first compound 3 µM) of 0.11% and a viability, T/C (second compound 0.003 µM, first compound 0.00949 µM) of 0.11%. The viability, T/C (second compound 0.003 µM, first compound 0.03 µM) was 0.11%, the viability, T/C (second compound 0.003 µM, first compound 0.0949 µM) was 0.09% and the viability, T/C (second compound 0.003 µM, first compound 0.3 µM) was 0.09%. For the same compound, the viability, T/C (second compound 0.003 µM, first compound 0.949 µM) was 0.1% and the viability, T/C (second compound 0.003 µM, first compound 3 µM) was 0.16%.
